Patent publication US12559461B2, “Antibiotic adjuvant compounds” (UNIVERSITY OF NOTRE DAME DU LAC, priority 2020, dated 2026)
≈ marks a conversion by molar mass, not a printed value. Entries after “also recorded” stand apart in the source; their conditions may differ. Like-named read-outs stand apart in the source and are kept apart here. One block for each compound: values may come before it.

Assays:
AB5075 [1] = details: previously reported, cited from earlier work
AB5075 [2] = test: Evolution of clarithromycin resistance by serial passage; type: cell-based, Acinetobacter baumannii
Method: A. baumannii 5075 was grown in CAMHB overnight then subcultured (5×10^5 CFU/mL) in 6 mL of fresh CAMHB. Adjuvant was added into this 6-mL subculture at either 10 or 30 μM concentrations. […] This was serially repeated for a period of nine days.

AB5075 [3] = details: previously reported, cited from earlier work; remark: listed apart in the source
AB5075 [4] = details: compound alone, previously reported; cited from earlier work
[5] = tested on: E. coli biofilm formation; details: Bioorg Med Chem Lett 2010; cited from earlier work
AB5075 [6] = test: Broth microdilution MIC of compound alone (standalone toxicity); type: cell-based, Acinetobacter baumannii
Summary of the method: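 A. baumannii 5075 subcultured to 5×10^5 CFU/mL in cation-adjusted Mueller-Hinton broth; compound twofold serially diluted from 200 μM (DMSO stock) and incubated stationary at 37° C for 16 h. MIC taken as lowest concentration with no visible growth; duplicates, repeated at least twice.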

AB5075 [7] = test: Broth microdilution clarithromycin (CLR) potentiation and dose-response of adjuvant; type: cell-based, Acinetobacter baumannii
Summary of the method: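 A. baumannii AB5075 at 5×10^5 CFU/mL in CAMHB with fixed adjuvant (DMSO ≤0.3%) and two-fold serially diluted clarithromycin or colistin, stationary 16 h at 37° C. MIC = lowest concentration without visible growth; fold reduction versus antibiotic alone. Dose-response used adjuvant at 0–30 μM.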

AB5075 [8] = test: Colistin MIC in presence of adjuvant (broth microdilution antibiotic potentiation); type: cell-based, Acinetobacter baumannii
Method: Bacterial Strains and Antimicrobial Agents. Acinetobacter baumannii clinical isolate 5075 was obtained from Dr. Colin Manoil at the University of Washington. Colonies were grown on lysogeny broth (LB) agar. Cation-adjusted Mueller-Hinton Broth (CAMHB) (catalog number 212322) were purchased from BD Diagnostics. LB broth was purchased from Fisher Scientific (catalog number BP9722-2). […] Colistin sulfate salt (catalog number C4461) was purchased from Sigma Aldrich. All assays were completed in duplicate and repeated at least two separate times. All compounds were dissolved as their HCl salts in molecular biology grade DMSO as 10 or 100 mM stock solutions and stored at −20° C. Colistin was dissolved in sterile water while clarithromycin was dissolved in molecular biology grade DMSO.
Broth microdilution method for antibiotic potentiation. Day cultures (6 h) of bacteria in CAMHB were subcultured to 5×10^5 CFU/mL in CAMHB. Aliquots (4 mL) were placed in culture tubes and dosed with compound from 10 mM stock samples to give the desired concentration of the compound to be tested against the particular bacterial strain; this insured non-toxic DMSO concentrations ≤0.3% in each well. 1 mL of the resulting solution was placed in a separate culture and dosed with antibiotic at the highest concentration to be tested. Bacteria treated with antibiotic alone served as the control. Row one of a 96-well plate was filled with 200 μL of the antibiotic/2-AI solution, and rows 2-12 were filled with 100 μL each of the remaining 4 mL of bacterial subculture containing adjuvant at the desired concentration, except for the control lane which contained only bacterial subculture. Row one was then mixed five times, and 100 μL was transferred to row two, which was then mixed five times before being transferred to row three. This process was repeated until all rows had been mixed, except for row twelve which would have only 2-AI to serve as a control to monitor potential toxicity. The 96-well plate was then covered in Glad Press n'Seal and incubated under stationary conditions at 37° C. for 16 h. MIC values were determined as the lowest concentration at which no bacterial growth was observed, and fold reductions were determined by comparison to antibiotic control lane.
Dose-response of Adjuvant Assay. The procedure for ‘broth microdilution method for antibiotic potentiation’ was followed using 4 mL aliquots of adjuvant at various concentrations: 0, 5, 7.5, 10, 15, 20, 25, and 30 μM.

[9] = passaging with CLR and 30 μM adjuvant 1, day 2 and day 9, adjuvant 1 at 30 μM

Compound: Cl.Nc1nc(-c2ccc(NC(=O)c3cc(Cl)cc(Cl)c3)cc2)c[nH]1 [Compound 1, N-(4-(2-amino-1H-imidazol-4-yl)phenyl)-3,5-dichlorobenzamide hydrochloride]
Colistin MIC (AB5075 [1]; compound at 30 μM): 4 µg/mL | suppression of evolution of CLR resistance (AB5075 [2]; AB5075 passaged with CLR and 30 μM adjuvant, nine-day course, hydrochloride): suppressed the increase in macrolide resistance; also recorded: suppresses the acquisition of CLR resistance | CLR MIC (AB5075 [2]; CLR-resistant AB5075 mutant from CLR-alone passaging, compound at 30 μM): 2 µg/mL | CLR MIC (AB5075 [2]; [9]): 0.25 µg/mL | Fold Reduction of CLR MIC (AB5075 [2]; [9]): 128 fold | CLR MIC (AB5075 [2]; serial passage with CLR + adjuvant 1 (30 μM), day 2, compound 1 tested at 30 μM): 0.25 µg/mL | CLR MIC (AB5075 [2]; serial passage with CLR + adjuvant 1 (30 μM), day 4, compound 1 tested at 30 μM): 0.25 µg/mL | CLR MIC (AB5075 [2]; serial passage with CLR + adjuvant 1 (30 μM), day 6, compound 1 tested at 30 μM): 0.25 µg/mL | CLR MIC (AB5075 [2]; serial passage with CLR + adjuvant 1 (30 μM), day 8, compound 1 tested at 30 μM): ≤0.5 µg/mL | CLR MIC (AB5075 [2]; serial passage with CLR + adjuvant 1 (30 μM), day 10, compound 1 tested at 30 μM): 0.25 µg/mL | Fold Reduction of CLR MIC (AB5075 [3]; compound at 10 μM): 16 fold

Compound: Nc1nc(-c2ccc(NC(=O)c3cc(Br)cc(Br)c3)cc2)c[nH]1 [Compound 2]
Colistin MIC (AB5075 [1]; compound at 30 μM): 4 µg/mL | Fold Reduction of CLR MIC (AB5075 [3]; compound at 10 μM): 16 fold | Fold Reduction of CLR MIC (AB5075 [3]; compound at 30 μM): 128 fold | MIC (AB5075 [4]): 100 µM (≈ 43.6 µg/mL)

Compound: Colistin sulfate salt [reference compound]
Colistin MIC (AB5075 [8]; colistin alone, no adjuvant): 0.5 µg/mL | Colistin MIC (AB5075 [1]; colistin alone): 1 µg/mL

Now from value to compound, other results behind:

CLR MIC (AB5075 [7]; compound tested at 30 μM): 4 µg/mL | Fold Reduction of CLR MIC (AB5075 [7]; compound tested at 30 μM): eight-fold
Compound: Nc1nc(-c2ccc(NC(=O)c3cc(F)cc(F)c3)cc2)c[nH]1 [Compound 4k]
biofilm inhibition activity [5]: lead biofilm inhibitor | MIC (AB5075 [6]; Acinetobacter baumannii): > 200 µM | adjuvant activity (CLR potentiation), rank by amide linker position (AB5075 [7]; dosed at 30 μM): highest adjuvant activity

Colistin MIC (AB5075 [8]; compound tested at 30 μM): 0.25 µg/mL | CLR MIC (AB5075 [7]; compound tested at 10 μM): 32 µg/mL | CLR MIC (AB5075 [7]; compound tested at 20 μM): 16 µg/mL | CLR MIC (AB5075 [7]; compound tested at 25 μM): 8 µg/mL
Compound: Cl.Nc1nc(-c2ccc(NC(=O)c3c(Cl)cc(Cl)cc3Cl)cc2)c[nH]1 [Compound 4s]
MIC (AB5075 [6]): 100 µM

Colistin MIC (AB5075 [8]; compound tested at 30 μM): 1 µg/mL | CLR MIC (AB5075 [7]; compound tested at 10 μM): 32 µg/mL | CLR MIC (AB5075 [7]; compound tested at 20 μM): 8 µg/mL | CLR MIC (AB5075 [7]; compound tested at 30 μM): 1 µg/mL
Compound: Cl.Nc1nc(-c2ccc(NC(=O)c3cc(F)c(F)c(F)c3)cc2)c[nH]1 [Compound 4v]
MIC (AB5075 [6]): 100 µM
